Here are results for nine compounds from patent publication US12492188B2, “1H-benzo[D]imidazole derivatives as TLR9 inhibitors for the treatment of fibrosis” (BRISTOL-MYERS SQUIBB COMPANY, priority 2020, dated 2025).

Common to all, as to type: cell-based
One assay has as its target T1, human TLR8 (Homo sapiens, UniProt Q9NR97).
T1 construct: host or cells: HEK-Blue cells (HEK293-derived reporter line)
T1 sequence (Q9NR97 27-1041): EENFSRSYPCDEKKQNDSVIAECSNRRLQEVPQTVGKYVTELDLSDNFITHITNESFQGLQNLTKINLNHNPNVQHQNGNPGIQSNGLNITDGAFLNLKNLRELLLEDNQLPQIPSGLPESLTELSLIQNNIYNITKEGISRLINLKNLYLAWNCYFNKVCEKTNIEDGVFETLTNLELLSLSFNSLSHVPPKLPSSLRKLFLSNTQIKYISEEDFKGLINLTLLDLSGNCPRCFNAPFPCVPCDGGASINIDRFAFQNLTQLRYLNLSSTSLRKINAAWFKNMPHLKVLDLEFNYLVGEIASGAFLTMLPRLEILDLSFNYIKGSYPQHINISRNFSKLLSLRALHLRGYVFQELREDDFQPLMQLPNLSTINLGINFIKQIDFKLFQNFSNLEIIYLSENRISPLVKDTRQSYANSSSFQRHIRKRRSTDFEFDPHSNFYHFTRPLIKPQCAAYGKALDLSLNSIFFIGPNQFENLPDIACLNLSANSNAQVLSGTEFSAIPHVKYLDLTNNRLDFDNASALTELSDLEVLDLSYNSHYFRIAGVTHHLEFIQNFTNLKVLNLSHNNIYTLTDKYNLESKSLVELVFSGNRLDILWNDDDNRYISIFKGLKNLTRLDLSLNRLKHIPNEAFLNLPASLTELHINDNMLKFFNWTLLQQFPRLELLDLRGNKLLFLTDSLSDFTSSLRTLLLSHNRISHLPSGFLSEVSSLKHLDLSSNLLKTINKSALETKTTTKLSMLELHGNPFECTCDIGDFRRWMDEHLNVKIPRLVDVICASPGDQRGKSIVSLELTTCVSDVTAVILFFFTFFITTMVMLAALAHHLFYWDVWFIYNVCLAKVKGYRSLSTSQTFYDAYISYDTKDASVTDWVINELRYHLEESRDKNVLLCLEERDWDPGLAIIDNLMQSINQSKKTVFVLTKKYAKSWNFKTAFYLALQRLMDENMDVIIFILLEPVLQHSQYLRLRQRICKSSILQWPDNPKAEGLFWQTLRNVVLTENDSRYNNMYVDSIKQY
As to the kind of experiment: TLR8 inhibition reporter assay (HEK-Blue cells, secreted embryonic alkaline phosphatase reporter). The conditions noted are these: HEK-Blue cells overexpressing human TLR8, stimulated with R848 15.9 μM; read-out: TLR 8 IC50. Summed up: (§1)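 HEK-Blue cells overexpressing the respective receptor, with an NF-κB/AP-1-driven SEAP reporter, were pre-treated with compound (0.05 nM–50 μM) for 30 min at room temperature. Stimulation used gardiquimod 7.5 μM (TLR7), R848 15.9 μM (TLR8) or ODN2006 5 nM (TLR9); SEAP was read after 22 h at 37 °C as percent inhibition.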

The target in another assay is T2, human TLR7 (Homo sapiens, UniProt Q9NYK1).
T2 construct: host or cells: HEK-Blue cells (HEK293-derived reporter line)
T2 sequence (Q9NYK1 27-1049): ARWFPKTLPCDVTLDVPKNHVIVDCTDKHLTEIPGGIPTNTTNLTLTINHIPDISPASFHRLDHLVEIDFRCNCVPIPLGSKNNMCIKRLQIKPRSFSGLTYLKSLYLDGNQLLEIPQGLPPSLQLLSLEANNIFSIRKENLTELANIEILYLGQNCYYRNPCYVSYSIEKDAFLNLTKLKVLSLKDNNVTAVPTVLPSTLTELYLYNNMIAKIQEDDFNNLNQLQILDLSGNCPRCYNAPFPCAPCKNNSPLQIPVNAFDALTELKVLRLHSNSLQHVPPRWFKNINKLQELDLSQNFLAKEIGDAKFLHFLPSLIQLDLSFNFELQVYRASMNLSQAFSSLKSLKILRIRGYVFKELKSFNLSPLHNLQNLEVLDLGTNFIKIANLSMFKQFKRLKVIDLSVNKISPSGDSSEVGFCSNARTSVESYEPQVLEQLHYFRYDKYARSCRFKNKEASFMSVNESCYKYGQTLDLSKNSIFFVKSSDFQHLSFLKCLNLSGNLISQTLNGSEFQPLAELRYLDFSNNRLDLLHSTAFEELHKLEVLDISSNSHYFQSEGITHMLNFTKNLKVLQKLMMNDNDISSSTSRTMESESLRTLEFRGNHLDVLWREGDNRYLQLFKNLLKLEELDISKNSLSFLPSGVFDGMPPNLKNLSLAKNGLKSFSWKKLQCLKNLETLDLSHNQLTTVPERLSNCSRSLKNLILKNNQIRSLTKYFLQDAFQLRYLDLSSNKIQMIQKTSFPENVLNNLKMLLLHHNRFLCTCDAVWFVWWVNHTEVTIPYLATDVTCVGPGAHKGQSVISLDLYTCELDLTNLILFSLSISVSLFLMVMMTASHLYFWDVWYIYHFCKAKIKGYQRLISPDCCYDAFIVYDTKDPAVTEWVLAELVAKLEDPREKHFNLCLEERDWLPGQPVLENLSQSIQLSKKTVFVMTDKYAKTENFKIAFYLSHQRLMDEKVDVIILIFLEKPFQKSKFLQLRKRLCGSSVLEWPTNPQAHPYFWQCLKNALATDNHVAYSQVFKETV
As to the kind of experiment: TLR7 inhibition reporter assay (HEK-Blue cells, secreted embryonic alkaline phosphatase reporter). The settings on record: HEK-Blue cells overexpressing human TLR7, stimulated with gardiquimod 7.5 μM; read-out: TLR 7 IC50. Summed up: as §1

A further assay concerns the target T3, human TLR9 (Homo sapiens, UniProt Q9NR96).
T3 construct: host or cells: HEK-Blue cells (HEK293-derived reporter line)
T3 sequence (Q9NR96 26-1032): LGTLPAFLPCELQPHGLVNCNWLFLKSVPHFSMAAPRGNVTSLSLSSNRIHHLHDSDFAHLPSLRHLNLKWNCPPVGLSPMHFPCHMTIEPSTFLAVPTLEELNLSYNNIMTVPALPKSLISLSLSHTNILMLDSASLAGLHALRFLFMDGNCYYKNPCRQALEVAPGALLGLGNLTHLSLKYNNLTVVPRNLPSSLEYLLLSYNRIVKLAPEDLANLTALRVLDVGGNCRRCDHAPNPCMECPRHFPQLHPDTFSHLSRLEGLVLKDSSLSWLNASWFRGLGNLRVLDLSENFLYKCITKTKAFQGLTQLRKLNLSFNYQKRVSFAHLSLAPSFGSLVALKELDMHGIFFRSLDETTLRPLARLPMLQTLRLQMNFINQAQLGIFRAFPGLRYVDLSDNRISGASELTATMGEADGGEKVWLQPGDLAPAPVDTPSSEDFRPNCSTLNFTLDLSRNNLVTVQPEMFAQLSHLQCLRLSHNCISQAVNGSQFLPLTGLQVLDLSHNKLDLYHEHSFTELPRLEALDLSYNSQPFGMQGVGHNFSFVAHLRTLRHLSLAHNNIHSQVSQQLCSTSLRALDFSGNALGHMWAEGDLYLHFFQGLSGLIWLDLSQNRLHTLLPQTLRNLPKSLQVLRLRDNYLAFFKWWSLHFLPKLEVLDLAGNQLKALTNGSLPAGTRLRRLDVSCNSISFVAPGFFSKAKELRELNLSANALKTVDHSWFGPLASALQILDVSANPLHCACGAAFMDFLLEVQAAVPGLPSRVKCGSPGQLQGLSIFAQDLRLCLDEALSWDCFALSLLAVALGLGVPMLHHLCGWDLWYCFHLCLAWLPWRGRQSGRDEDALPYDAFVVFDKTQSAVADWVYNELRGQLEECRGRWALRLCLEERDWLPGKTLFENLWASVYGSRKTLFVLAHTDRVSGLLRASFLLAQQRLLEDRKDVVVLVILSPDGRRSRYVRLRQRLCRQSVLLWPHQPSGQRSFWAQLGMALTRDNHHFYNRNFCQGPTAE
As to the kind of experiment: TLR9 inhibition reporter assay (HEK-Blue cells, secreted embryonic alkaline phosphatase reporter). Summed up: as §1

The mark [1] stands for this setting: HEK-Blue cells overexpressing human TLR9, stimulated with ODN2006 5 nM, read-out: TLR 9 IC50.
Setting [2] is: HEK-Blue human TLR9 reporter cells.
The mark [3] stands for this setting: HEK-Blue cells overexpressing human TLR9, stimulated with ODN2006 5 nM, 22 hour incubation, reporter readout.

Each structure is given as a SMILES string. Like-named read-outs stand apart in the source and are kept apart here.

`Cn1c(-c2ccc(S(C)(=O)=O)cc2)nc2c(F)cc(C3CCN(C4CCCN(CC5CC5)CC4)CC3)cc21` (single isomer, unassigned) [Example 298, 6-(1-(1-(cyclopropylmethyl)azepan-4-yl)piperidin-4-yl)-4-fluoro-1-methyl-2-(4-(methylsulfonyl)phenyl)-1H-benzo[d]imidazole]: the IC50 was more than 50000 nM on human TLR8, 3000 nM at human TLR7, 58 nM at human TLR9 (setting [1]) and 58 nM at human TLR9 (setting [2]).
For the compound `Cn1c(-c2ccc(S(C)(=O)=O)cc2)nc2cc(C3CCN(C4CC5CCC(C4)N5CC4CC4)CC3)cc(F)c21` (stereo not drawn) [Example 217, 5-(1-(8-(cyclopropylmethyl)-8-azabicyclo[3.2.1]octan-3-yl)piperidin-4-yl)-7-fluoro-1-methyl-2-(4-(methylsulfonyl)phenyl)-1H-benzo[d]imidazole], the IC50 on human TLR8 was more than 50000 nM; on human TLR7, 12900 nM; on human TLR9 it was 130 nM; at human TLR9 (setting [1]), 125 nM.
As for `COc1ccc(-c2nc3c(C)cc(C4CCN(C5CCN(C6CC6)CC5)CC4)cc3n2C)cc1OC` [Example 46, 6-(1′-cyclopropyl-[1,4′-bipiperidin]-4-yl)-2-(3,4-dimethoxyphenyl)-1,4-dimethyl-1H-benzo[d]imidazole tris(2,2,2-trifluoroacetate)], the IC50 was more than 50000 nM at human TLR8, 18000 nM on human TLR7, 170 nM on human TLR9 (setting [3]) and 610 nM at human TLR9 (setting [1]).
With `Cn1c(-c2ccc(S(C)(=O)=O)cc2)nc2ccc(C3CCN(C4CCCN(C5CCOCC5)CC4)CC3)c(F)c21` (stereo not drawn) [Example 316, 7-fluoro-1-methyl-2-(4-(methylsulfonyl)phenyl)-6-(1-(1-(tetrahydro-2H-pyran-4-yl)azepan-4-yl)piperidin-4-yl)-1H-benzo[d]imidazole], the IC50 was 16700 nM on human TLR8, more than 50000 nM on human TLR7, 14 nM at human TLR9 (setting [1]) and 14 nM at human TLR9 (setting [2]).
Take `CC(C)CN1C2CCC1CC(N1CCC(c3cc4c(cc3F)nc(-c3ccc(S(C)(=O)=O)cc3)n4C)CC1)C2` (single isomer, unassigned) [Example 228, 5-fluoro-6-(1-(8-isobutyl-8-azabicyclo[3.2.1]octan-3-yl)piperidin-4-yl)-1-methyl-2-(4-(methylsulfonyl)phenyl)-1H-benzo[d]imidazole]: the IC50 on human TLR8 was found to be 16700 nM; on human TLR7 it was 1400 nM; at human TLR9, 69 nM; at human TLR9 (setting [1]) it was 69 nM.
As to `COc1ccc(-c2nc3ccc(C4CCN(C5CCN(CC(C)C)CC5)CC4)cc3n2C)cc1OC` [Example 26, 2-(3,4-dimethoxyphenyl)-6-(1′-isobutyl-[1,4′-bipiperidin]-4-yl)-1-methyl-1H-benzo[d]imidazole], the IC50 on human TLR8 is more than 50000 nM; on human TLR7 it was 32000 nM; against human TLR9 (setting [3]), 130 nM; at human TLR9 (setting [1]), 132 nM.
Turning to `Cc1cc(C2CCN(C3CC4CCC(C3)N4CC3CC3)CC2)cc2c1nc(-c1ccc(S(C)(=O)=O)c(F)c1)n2C` (stereo not drawn) [Example 341, 6-(1-(8-(cyclopropylmethyl)-8-azabicyclo[3.2.1]octan-3-yl)piperidin-4-yl)-2-(3-fluoro-4-(methylsulfonyl)phenyl)-1,4-dimethyl-1H-benzo[d]imidazole], the IC50 at human TLR8 is 16700 nM; on human TLR7, 2200 nM; at human TLR9 (setting [1]) it was 37 nM; at human TLR9 (setting [2]), 37 nM.
In the case of `COCCN1C2CCC1CC(N1CCC(c3cc(C)c4nc(-c5ccc(S(C)(=O)=O)cc5)n(C)c4c3)CC1)C2` (single isomer, unassigned) [Example 163, 6-(1-(8-(2-methoxyethyl)-8-azabicyclo[3.2.1]octan-3-yl)piperidin-4-yl)-1,4-dimethyl-2-(4-(methylsulfonyl)phenyl)-1H-benzo[d]imidazole], the IC50 at human TLR8 is more than 25000 nM; at human TLR7 it was 6200 nM; on human TLR9, 600 nM; at human TLR9 (setting [1]), 599 nM.
`CS(=O)(=O)c1ccc(-c2nc3c(F)cc(C4CCN(C5CC6CCC(C5)N6C5CCC5)CC4)cc3n2C2CC2)cc1` (single isomer, unassigned) [Example 326, 6-(1-(8-cyclobutyl-8-azabicyclo[3.2.1]octan-3-yl)piperidin-4-yl)-1-cyclopropyl-4-fluoro-2-(4-(methylsulfonyl)phenyl)-1H-benzo[d]imidazole]: the IC50 was more than 50000 nM on human TLR8, 1300 nM on human TLR7, 23 nM on human TLR9 (setting [1]) and 23 nM at human TLR9 (setting [2]).
